# Measured values from article PMC4175339, “Inhibition of the Functional Interplay between Endoplasmic Reticulum (ER) Oxidoreduclin-1α (Ero1α) and Protein-disulfide Isomerase (PDI) by the Endocrine Disruptor Bisphenol A” (The Journal of Biological Chemistry, 2014).
# Molecular target: T1, human PDI + hyperactive human Ero1α (Ero1α-mediated PDI oxidation) (Homo sapiens, UniProt P07237)
# T1 construct: gene P4HB; recombinant from E. coli; with ERO1-like protein alpha
# Assay: NADPH consumption assay coupled to glutathione reductase, A340
# Assay type: biochemical
# T1 sequence (P07237 18-508): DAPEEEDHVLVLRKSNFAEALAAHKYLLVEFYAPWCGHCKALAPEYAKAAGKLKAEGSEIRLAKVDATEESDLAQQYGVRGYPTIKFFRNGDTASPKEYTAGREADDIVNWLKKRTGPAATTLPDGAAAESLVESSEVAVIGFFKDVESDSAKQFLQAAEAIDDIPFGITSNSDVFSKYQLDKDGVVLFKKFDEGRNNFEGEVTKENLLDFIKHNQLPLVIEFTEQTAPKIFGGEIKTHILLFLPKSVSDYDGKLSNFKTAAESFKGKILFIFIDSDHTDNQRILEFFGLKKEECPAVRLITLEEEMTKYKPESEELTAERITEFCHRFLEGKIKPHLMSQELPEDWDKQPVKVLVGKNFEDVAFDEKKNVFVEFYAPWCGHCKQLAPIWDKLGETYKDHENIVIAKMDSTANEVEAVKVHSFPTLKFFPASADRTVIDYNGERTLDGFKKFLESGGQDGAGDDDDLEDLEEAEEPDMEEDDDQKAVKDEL
# T1 sequence (Q96HE7 24-468 C104A/C131A partner): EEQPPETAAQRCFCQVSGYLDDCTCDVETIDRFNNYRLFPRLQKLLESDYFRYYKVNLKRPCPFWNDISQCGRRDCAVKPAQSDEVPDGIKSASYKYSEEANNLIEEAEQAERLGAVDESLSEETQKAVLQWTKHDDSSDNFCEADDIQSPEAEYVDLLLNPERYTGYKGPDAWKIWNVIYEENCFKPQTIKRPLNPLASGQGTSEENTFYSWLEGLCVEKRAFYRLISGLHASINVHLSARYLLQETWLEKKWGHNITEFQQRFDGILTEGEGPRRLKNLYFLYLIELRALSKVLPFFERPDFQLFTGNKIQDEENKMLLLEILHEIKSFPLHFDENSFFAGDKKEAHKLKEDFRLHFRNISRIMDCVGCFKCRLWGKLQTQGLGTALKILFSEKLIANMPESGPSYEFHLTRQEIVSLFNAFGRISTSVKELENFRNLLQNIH
structure (smiles),measurement,value
"CC(C)(c1ccc(O)cc1)c1ccc(O)cc1 [bisphenol A, 2,2′-bis(4-hydroxyphenyl) propane]",IC50,41 µM
